Consider 10 molecules from ChEMBL document CHEMBL4477248, “Blinded predictions of binding modes and energies of HSP90-α ligands for the 2015 D3R grand challenge” (Bioorg Med Chem, 2016).

Activity calls are given as the source filed them. The calls are words filed in the database; no cut-off is given here.

The assay concerns the target Heat shock protein HSP 90-alpha (Homo sapiens, UniProt P07900). Put plainly: Inhibition of HSP90alpha (unknown origin).

For the molecule `O=c1[nH]c2cc(CNS(=O)(=O)c3cccnc3)ccc2n1-c1cc(Cl)c(O)cc1O`, the half-inhibitory concentration (IC50) (usually the concentration at which inhibition is half-maximal) turned out to be 5 nM. This lies in the single-digit nanomolar range.
Regarding `O=C1c2ccccc2-c2ccccc21`, the 50% inhibitory concentration (IC50) was greater than 1000 nM.
`O=C1c2ccccc2C(=O)c2c1ccc1nonc21`: the inhibition result is “Active”.
Turning to `CC(=O)Oc1ccc2c(=O)c(Cc3ccccc3)c(C)oc2c1OC(C)=O`, the inhibition entry was “Active”.
For `CC(=O)Oc1ccc([N+](=O)[O-])c2ccccc12`, the inhibition entry was “inactive”.
Still for that read-out and setting: for `CCOC(=O)CC1(C)Oc2ccccc2O1` the value was “inactive”.
As to `COc1cc(F)c(Cl)cc1C(=O)c1ccc(OCc2ccccc2)cc1`, the half-inhibitory concentration (IC50) is greater than 1000 nM.
The same measure, in the same setting: then `CCn1c(=O)n(-c2ccccc2OC)c2ccccc21`, with greater than 1000 nM.
`COC(=O)c1cc(C(=O)c2ccc(OC)cc2)cc(C(=O)OC)c1OC` showed an IC50 greater than 1000 nM.
With `Cn1c2c([n+](C)c1CCl)C(=O)c1ccccc1C2=O`, the inhibition result was “Active”.
